Assay results as given in ChEMBL document CHEMBL1201862, “PubChem BioAssay data set” (2004).
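All cell lines were grown in 96-well plates and treated with compound for 48 hours. Abbreviation: GI50, concentration required for 50% inhibition of growth.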 Calls of active or inactive are those of the source. Cut-off read from the data, not from the text of the source: active = GI50 up to about 1.1 µM and inactive = higher.

Assays:
Experiment in all cases: inhibition of tumour cell growth, NCI panel, 48 h
[1] = system: HOP-62
[2] = system: Malme-3M
[3] = system: SK-OV-3
[4] = system: SK-MEL-2
[5] = system: NCI-H226
[6] = system: NCI-H522
[7] = system: SN12C
[8] = system: T47D
[9] = system: LOX IMVI
[10] = system: ACHN
[11] = system: RXF 393
[12] = system: MDA-N
[13] = system: HCC 2998
[14] = system: SNB-19
[15] = system: UO-31
[16] = system: KM12
[17] = system: Hs-578T
[18] = system: SF-295
[19] = system: MDA-MB-231
[20] = system: K562

| Compound | GI50 [1] | GI50 [2] | GI50 [3] | GI50 [4] | GI50 [5] | GI50 [6] | GI50 [7] | GI50 [8] | GI50 [9] | GI50 [10] | GI50 [11] | GI50 [12] | GI50 [13] | GI50 [14] | GI50 [15] | GI50 [16] | GI50 [17] | GI50 [18] | GI50 [19] | GI50 [20] |
| --- | --- | --- | --- | --- | --- | --- | --- | --- | --- | --- | --- | --- | --- | --- | --- | --- | --- | --- | --- | --- |
| CC1(C)C2CC(O)C1CCC2=O (stereo not given) | > 100 µM (inactive) | > 100 µM (inactive) | > 100 µM (inactive) | > 100 µM (inactive) | > 100 µM (inactive) | > 100 µM (inactive) | > 100 µM (inactive) | > 100 µM (inactive) | > 100 µM (inactive) | > 100 µM (inactive) | > 100 µM (inactive) | > 100 µM (inactive) | > 100 µM (inactive) | > 100 µM (inactive) | > 100 µM (inactive) | > 100 µM (inactive) | > 100 µM (inactive) | > 100 µM (inactive) | > 100 µM (inactive) | > 100 µM (inactive) |
| O=c1[nH]c2ccccc2c2oc(-c3ccccc3)nc12 | 15.8 µM (inactive) | > 100 µM (inactive) | 37.2 µM (inactive) | 24.2 µM (inactive) | 88.9 µM (inactive) | 61.5 µM (inactive) | 16.5 µM (inactive) | 51.2 µM (inactive) | 21.3 µM (inactive) | > 100 µM (inactive) | 20.4 µM (inactive) | 20.2 µM (inactive) | > 100 µM (inactive) | 26.1 µM (inactive) | > 100 µM (inactive) | 50.5 µM (inactive) | 25.1 µM (inactive) | 23.9 µM (inactive) | 17.3 µM (inactive) | 36.1 µM (inactive) |
| CC(C)(C)c1cc(C(=O)/C=C/c2ccc(O)c(O)c2O)cc(C(C)(C)C)c1O | 7.08 µM (inactive) | 11.5 µM (inactive) | 3.87 µM (inactive) | 4.41 µM (inactive) | 14.1 µM (inactive) | 1.08 µM (active) | 2.8 µM (inactive) | 2 µM (inactive) | 9.71 µM (inactive) | 5.69 µM (inactive) | 2.84 µM (inactive) | 4.38 µM (inactive) | 2.84 µM (inactive) | 2.56 µM (inactive) | 2.67 µM (inactive) | 2.58 µM (inactive) | 3.99 µM (inactive) | 5.41 µM (inactive) | 12 µM (inactive) | 2.81 µM (inactive) |
| Cn1c2cc(Cl)ccc2c2ccc3c(c21)C(=O)C=CC3=O | > 100 µM (inactive) | 16.5 µM (inactive) | > 100 µM (inactive) | 33.3 µM (inactive) | > 100 µM (inactive) | 8.13 µM (inactive) | 14 µM (inactive) | 14.1 µM (inactive) | 42.5 µM (inactive) | 16.8 µM (inactive) | 21.1 µM (inactive) | 26.1 µM (inactive) | > 100 µM (inactive) | > 100 µM (inactive) | 45.7 µM (inactive) | > 100 µM (inactive) | 46.9 µM (inactive) | > 100 µM (inactive) | 26.9 µM (inactive) | 3.4 µM (inactive) |
| O=C1/C(=C/c2ccccc2)CCC/C1=C\c1ccc(O)c(CN2CCCCC2)c1 | 13.5 µM (inactive) | 11.4 µM (inactive) | 9.1 µM (inactive) | 11.9 µM (inactive) | 6.41 µM (inactive) | 2.24 µM (inactive) | 2.82 µM (inactive) | 4.88 µM (inactive) | 1.99 µM (inactive) | 1.81 µM (inactive) | 13.8 µM (inactive) | 2.56 µM (inactive) | 2.39 µM (inactive) | 9.35 µM (inactive) | 6.92 µM (inactive) | 0.933 µM (active) | 3.93 µM (inactive) | 5.35 µM (inactive) | 2.77 µM (inactive) | 3.27 µM (inactive) |
| CN(C)CCCCN1c2ccccc2Sc2cc(N=[N+]=[N-])ccc21 | 2.28 µM (inactive) | 1.82 µM (inactive) | 2.2 µM (inactive) | 1.97 µM (inactive) | 3.28 µM (inactive) | 1.6 µM (inactive) | 3.48 µM (inactive) | 1.94 µM (inactive) | 1.56 µM (inactive) | 1.99 µM (inactive) | 3.3 µM (inactive) | 1.72 µM (inactive) | 1.89 µM (inactive) | 5.75 µM (inactive) | 1.83 µM (inactive) | 1.73 µM (inactive) | 3.03 µM (inactive) | 1.96 µM (inactive) | 1.71 µM (inactive) | 1.88 µM (inactive) |
| CCOC(=O)C1=CC(C)(C(=O)OCC)Nc2c(nc(N)[nH]c2=O)N1 (stereo not given) | > 10 µM (inactive) | > 10 µM (inactive) | > 10 µM (inactive) | > 10 µM (inactive) | > 10 µM (inactive) | > 10 µM (inactive) | > 10 µM (inactive) | > 10 µM (inactive) | > 10 µM (inactive) | > 10 µM (inactive) | > 10 µM (inactive) | > 10 µM (inactive) | > 10 µM (inactive) | > 10 µM (inactive) | > 10 µM (inactive) | > 10 µM (inactive) | > 10 µM (inactive) | > 10 µM (inactive) | > 10 µM (inactive) | > 10 µM (inactive) |
| O=C1c2ccccc2C(=O)N1[C@@H](Cc1ccccc1)C(=O)n1cccc1CO | > 100 µM (inactive) | > 100 µM (inactive) | > 100 µM (inactive) | > 100 µM (inactive) | > 100 µM (inactive) | > 100 µM (inactive) | > 100 µM (inactive) | > 100 µM (inactive) | > 100 µM (inactive) | > 100 µM (inactive) | 1.02 µM (active) | > 100 µM (inactive) | > 100 µM (inactive) | > 100 µM (inactive) | > 100 µM (inactive) | > 100 µM (inactive) | > 100 µM (inactive) | > 100 µM (inactive) | > 100 µM (inactive) | > 100 µM (inactive) |
| Cc1ccc(/C=C2\CN(C)CC3=C2N=C(S)NC3c2ccc(C)cc2)cc1 (stereo not given) | 40.5 µM (inactive) | 47.3 µM (inactive) | > 100 µM (inactive) | 51.3 µM (inactive) | 27.8 µM (inactive) | 39.5 µM (inactive) | 32.7 µM (inactive) | > 100 µM (inactive) | 30.3 µM (inactive) | 40.7 µM (inactive) | 31.6 µM (inactive) | 13.5 µM (inactive) | 41.5 µM (inactive) | 73.5 µM (inactive) | 55.1 µM (inactive) | 15.4 µM (inactive) | > 100 µM (inactive) | 36.9 µM (inactive) | 34.8 µM (inactive) | 23.3 µM (inactive) |
| CNc1nc(SC)nc2c1c(N)nn2C | > 100 µM (inactive) | > 100 µM (inactive) | > 100 µM (inactive) | > 100 µM (inactive) | > 100 µM (inactive) | > 100 µM (inactive) | > 100 µM (inactive) | > 100 µM (inactive) | > 100 µM (inactive) | > 100 µM (inactive) | > 100 µM (inactive) | > 100 µM (inactive) | > 100 µM (inactive) | > 100 µM (inactive) | > 100 µM (inactive) | > 100 µM (inactive) | 95.3 µM (inactive) | > 100 µM (inactive) | > 100 µM (inactive) | > 100 µM (inactive) |
| CO/C(N)=C(C#N)/N=C/c1ccccc1 | > 100 µM (inactive) | 40.3 µM (inactive) | > 100 µM (inactive) | > 100 µM (inactive) | > 100 µM (inactive) | > 100 µM (inactive) | > 100 µM (inactive) | > 100 µM (inactive) | > 100 µM (inactive) | > 100 µM (inactive) | > 100 µM (inactive) | > 100 µM (inactive) | > 100 µM (inactive) | 66.2 µM (inactive) | 89.5 µM (inactive) | > 100 µM (inactive) | > 100 µM (inactive) | > 100 µM (inactive) | > 100 µM (inactive) | 58.6 µM (inactive) |
| Cc1nc(C(N)=S)sc1C(=O)CC(=O)C(=O)Nc1cccc(Cl)c1C | > 100 µM (inactive) | > 100 µM (inactive) | > 100 µM (inactive) | > 100 µM (inactive) | > 100 µM (inactive) | > 100 µM (inactive) | > 100 µM (inactive) | > 100 µM (inactive) | > 100 µM (inactive) | > 100 µM (inactive) | > 100 µM (inactive) | > 100 µM (inactive) | > 100 µM (inactive) | > 100 µM (inactive) | > 100 µM (inactive) | > 100 µM (inactive) | > 100 µM (inactive) | > 100 µM (inactive) | > 100 µM (inactive) | > 100 µM (inactive) |
| O=C1c2c(nc3ccccc3c2-c2ccccc2)CN1Nc1ccccn1 | 72.6 µM (inactive) | 78.3 µM (inactive) | 98.2 µM (inactive) | > 100 µM (inactive) | 61.1 µM (inactive) | > 78.3 µM (inactive) | 53.6 µM (inactive) | > 68.4 µM (inactive) | > 76.9 µM (inactive) | 43.7 µM (inactive) | 53 µM (inactive) | > 100 µM (inactive) | > 100 µM (inactive) | > 86.5 µM (inactive) | 13.8 µM (inactive) | 76 µM (inactive) | 21.2 µM (inactive) | 60.1 µM (inactive) | > 100 µM (inactive) | 83.4 µM (inactive) |
| O=C1/C(=N\NC(=S)NC2CCCCC2)c2cc([N+](=O)[O-])ccc2N1CN1CCOCC1 | 10.3 µM (inactive) | 11.4 µM (inactive) | 13 µM (inactive) | 11.7 µM (inactive) | 19.1 µM (inactive) | 10 µM (inactive) | 3.72 µM (inactive) | 2.64 µM (inactive) | 5.04 µM (inactive) | 5.11 µM (inactive) | 12.4 µM (inactive) | 6.08 µM (inactive) | 4.93 µM (inactive) | 7.87 µM (inactive) | 6.31 µM (inactive) | 4.81 µM (inactive) | 15 µM (inactive) | 3.67 µM (inactive) | 15.8 µM (inactive) | 3.61 µM (inactive) |
